Consider seven compounds from PubChem BioAssay (NCI).

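Interpolation was linear, between the two tested concentrations surrounding the appropriate level; five concentrations were tested over 48 hours in 96-well plates. TGI marks complete inhibition of growth.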

Some test systems named below: CAKI-1 renal; HS 578T breast; SK-MEL-5 melanoma; IGROV1 ovarian; UO-31 renal; SR leukemia; NCI-H522 lung; PC-3 prostate; SF-539 CNS; HOP-92 NSCLC; T-47D breast; SF-295 CNS; HOP-62 NSCLC; SK-OV-3 ovarian; ACHN renal; K-562 leukemia; RPMI-8226 leukemia; MDA-MB-231 breast; MDA-N; CCRF-CEM leukemia.
What all share (assay): inhibition of tumour cell growth, NCI panel, 48 h

For `Fc1ccc(C(OCCN2CCN(CCCCl)CC2)c2ccc(F)cc2)cc1`, the TGI in the test on CAKI-1 renal was greater than 100 µM; with HS 578T breast it was 83.8 µM; with SK-MEL-5 melanoma it was 32.4 µM; in the test with IGROV1 ovarian it was 86.4 µM; in the test on UO-31 renal, greater than 100 µM; with SR leukemia, 61.9 µM. Further, the TGI was 36.8 µM with NCI-H522 lung; greater than 100 µM with PC-3 prostate; 34.6 µM in the test on SF-539 CNS; 49 µM with HOP-92 NSCLC; 52.5 µM with T-47D breast; 58.1 µM with SF-295 CNS. Further, the TGI with HOP-62 NSCLC was greater than 100 µM; with SK-OV-3 ovarian, greater than 100 µM; in the test on ACHN renal, greater than 100 µM; in the test on K-562 leukemia, 60.7 µM; in the test on RPMI-8226 leukemia, 49.5 µM; with MDA-MB-231 breast it was 75.5 µM. The TGI with MDA-N was 45 µM; with CCRF-CEM leukemia it was greater than 100 µM.
In the case of `CC(=O)OCCCC(NC(=O)OC(C)(C)C)C(=O)NC(CCCOC(C)=O)C(=O)NC(Cc1ccc([N+](=O)[O-])cc1)C(=O)NCC(=O)OCc1ccccc1` (stereo not given), the TGI in the test on CAKI-1 renal was 34.5 µM; in the test with HS 578T breast, 32.8 µM; with SK-MEL-5 melanoma it was 30.1 µM; in the test on IGROV1 ovarian, 34 µM; in the test with UO-31 renal, 30 µM; in the test with SR leukemia it was 44.6 µM. For the same compound, the TGI with NCI-H522 lung worked out at 32.3 µM; with PC-3 prostate, 30.9 µM; in the test with SF-539 CNS, 28.9 µM; in the test on HOP-92 NSCLC, 42.1 µM; in the test on T-47D breast it was 33.5 µM; with SF-295 CNS, 24.4 µM. The TGI in the test with HOP-62 NSCLC is 34.8 µM; in the test with SK-OV-3 ovarian, 57.6 µM; in the test with ACHN renal, 31.5 µM; with K-562 leukemia, 96 µM; in the test on RPMI-8226 leukemia it was 44.6 µM; in the test on MDA-MB-231 breast it was 27.3 µM. In addition, the values for the TGI in the test on MDA-N and in the test with CCRF-CEM leukemia were 28.6 µM and greater than 100 µM, respectively.
For the compound `O=[N+]([O-])c1c(F)c(F)c2c(c1F)Nc1ccccc1S2`, the TGI stood at 8.24 µM in the test with CAKI-1 renal; 28.6 µM in the test on HS 578T breast; 23.8 µM with SK-MEL-5 melanoma; 8.64 µM in the test on IGROV1 ovarian; 34 µM with UO-31 renal; 5.61 µM in the test with SR leukemia. Moreover, the TGI with NCI-H522 lung is 10.9 µM; with PC-3 prostate, 22.4 µM; with SF-539 CNS, 39.6 µM; with HOP-92 NSCLC, 31 µM; in the test on T-47D breast it was 12.1 µM; in the test with SF-295 CNS it was 34.2 µM. The TGI with HOP-62 NSCLC was 27.6 µM; in the test with SK-OV-3 ovarian it was 35.9 µM; in the test with ACHN renal, 29.1 µM; with K-562 leukemia it was greater than 100 µM; in the test on RPMI-8226 leukemia it was 27.2 µM; in the test with MDA-MB-231 breast, 4.76 µM. Also, the TGI is 14.5 µM in the test with MDA-N and 6.46 µM with CCRF-CEM leukemia.
In the case of `C=C(CCOC)CCC1CCCCC(=C)[C@H]1OC(C)=O` (stereo not given in full), the TGI with CAKI-1 renal, in the test on HS 578T breast, with SK-MEL-5 melanoma, in the test with IGROV1 ovarian, in the test on UO-31 renal and with SR leukemia was greater than 100 µM each time. Further, the TGI in the test on NCI-H522 lung, with PC-3 prostate, in the test with SF-539 CNS, in the test on HOP-92 NSCLC, in the test on T-47D breast and in the test with SF-295 CNS was greater than 100 µM in each case. Also, the TGI in the test on HOP-62 NSCLC, in the test with SK-OV-3 ovarian, in the test on ACHN renal, with K-562 leukemia, in the test on RPMI-8226 leukemia and with MDA-MB-231 breast was greater than 100 µM throughout. In addition, the TGI in the test on MDA-N and with CCRF-CEM leukemia was greater than 100 µM each time.
With `O=C1N=C(SC(SC2=NC(=O)C3(NN2)c2ccccc2-c2ccccc23)=C(SC2=NC(=O)C3(NN2)c2ccccc2-c2ccccc23)SC2=NC(=O)C3(NN2)c2ccccc2-c2ccccc23)NNC12c1ccccc1-c1ccccc12`, the TGI with CAKI-1 renal, in the test with HS 578T breast, in the test with SK-MEL-5 melanoma, in the test on IGROV1 ovarian, with UO-31 renal and with SR leukemia was greater than 10 µM each time. In addition, the TGI with NCI-H522 lung, in the test on PC-3 prostate, with SF-539 CNS, with HOP-92 NSCLC, with T-47D breast and in the test on SF-295 CNS was greater than 10 µM throughout. Moreover, the TGI in the test on HOP-62 NSCLC was greater than 10 µM; in the test with SK-OV-3 ovarian, greater than 10 µM; in the test on ACHN renal it was 9.09 µM; in the test on K-562 leukemia, greater than 10 µM; with RPMI-8226 leukemia, greater than 10 µM; in the test with MDA-MB-231 breast it was greater than 10 µM. Moreover, the TGI in the test on MDA-N and in the test on CCRF-CEM leukemia was greater than 10 µM each time.
Regarding `COc1ccc([C@H]2CC(=O)C[C@H](c3ccc(OC)cc3)C23C(=O)c2ccccc2C3=O)cc1`, the TGI in the test on CAKI-1 renal was greater than 100 µM; in the test on HS 578T breast it was 87.8 µM; in the test on SK-MEL-5 melanoma, 17.4 µM; in the test on IGROV1 ovarian, greater than 100 µM; in the test with UO-31 renal, greater than 100 µM; with SR leukemia, 42.2 µM. The TGI in the test with NCI-H522 lung is 18.6 µM; with PC-3 prostate, greater than 100 µM; with SF-539 CNS, 53.3 µM; in the test with HOP-92 NSCLC, greater than 100 µM; with T-47D breast it was greater than 100 µM; in the test on SF-295 CNS, greater than 100 µM. The TGI in the test with HOP-62 NSCLC, in the test with SK-OV-3 ovarian, with ACHN renal, with K-562 leukemia, in the test on RPMI-8226 leukemia and with MDA-MB-231 breast was greater than 100 µM each time. Moreover, the values for the TGI in the test on MDA-N and with CCRF-CEM leukemia were 5.35 µM and greater than 100 µM, respectively.
As for `O=C(NNC(=S)Nc1ccccc1)c1cc(-c2ccccc2)nc2ccccc12`, the TGI in the test with CAKI-1 renal is 64.8 µM; with HS 578T breast, 65.6 µM; in the test with SK-MEL-5 melanoma, 27 µM; in the test with IGROV1 ovarian it was greater than 100 µM; with UO-31 renal it was 31 µM; in the test on SR leukemia it was 32.9 µM. Further, the TGI with NCI-H522 lung came out at 52.6 µM; in the test with PC-3 prostate, 56.4 µM; in the test with SF-539 CNS, 38.7 µM; in the test with HOP-92 NSCLC it was 37.7 µM; in the test on T-47D breast, 50.5 µM; in the test with SF-295 CNS, 27.4 µM. In addition, the TGI worked out at 33.3 µM in the test on HOP-62 NSCLC; 43.2 µM in the test on SK-OV-3 ovarian; 91.9 µM in the test with ACHN renal; 63.2 µM in the test with K-562 leukemia; 44.9 µM in the test on RPMI-8226 leukemia; 52.5 µM in the test with MDA-MB-231 breast. Also, the TGI with MDA-N is 37.9 µM; in the test on CCRF-CEM leukemia it was 29.9 µM.
